Test results published in patent US20120214822A1 (ASTRAZENECA AB, priority 2007, published 2012).

Target: human active recombinant p38α-6His tagged (Homo sapiens, UniProt Q16539)
Experiment: P38 Alpha Enzyme Assay (AlphaScreen, biotinylated-ATF2 substrate);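 note: 0.5 nM final p38α, reaction started with ATP and run 45 min at 37 °C, phospho-ATF2 read by antibody-based AlphaScreen, background wells quenched with EDTA before ATP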
Format: biochemical
Conditions: p38 alpha enzyme inhibition; means of replicate determinations; 4 h pre-incubation at 37° C.; SD of assay 0.2-0.3 log units

Chain of human active recombinant p38α-6His tagged (Q16539 whole entry): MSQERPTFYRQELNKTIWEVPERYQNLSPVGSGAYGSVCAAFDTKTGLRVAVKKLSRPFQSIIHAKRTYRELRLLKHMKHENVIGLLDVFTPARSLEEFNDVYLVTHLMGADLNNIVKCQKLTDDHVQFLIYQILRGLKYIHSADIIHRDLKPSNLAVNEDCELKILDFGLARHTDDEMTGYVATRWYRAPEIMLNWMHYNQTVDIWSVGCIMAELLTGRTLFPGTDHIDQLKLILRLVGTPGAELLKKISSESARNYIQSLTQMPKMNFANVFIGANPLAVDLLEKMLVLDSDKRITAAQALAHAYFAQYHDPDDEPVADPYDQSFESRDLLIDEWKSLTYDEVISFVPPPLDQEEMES

| pIC50 | IC50 [nM] | Structure (SMILES) |
| --- | --- | --- |
| 10 | – | CNC[C@H](O)COc1ccccc1C(C)(C)Nc1nccn(-c2cc(C(=O)NC3CC3)cc(F)c2C)c1=O [Example 310, N-Cyclopropyl-3-fluoro-5-[3-{[1-(2-{[(2S)-2-hydroxy-3-(methylamino)propyl]oxy}phenyl)-1-methylethyl]amino}-2-oxopyrazin-1(2H)-yl]-4-methylbenzamide] |
| 7 | – | Cc1ccc(C(=O)NC2CC2)cc1-n1ccnc(NCc2ccccc2CN2CCN(C)CC2)c1=O [Example 41, N-Cyclopropyl-4-methyl-3-[3-[[[2-[(4-methyl-1-piperazinyl)methyl]phenyl]methyl]amino]-2-oxo-1(2H)-pyrazinyl]-benzamide] |
| 8.5 | – | Cc1ccccc1[C@H](Nc1nccn(-c2cc(C(=O)NC3CC3)ccc2C)c1=O)[C@@H](C)CO [Example 272, N-Cyclopropyl-3-[3-[[(1R,2R)-3-hydroxy-1-(2-methylphenyl)-2-methylpropyl]amino]-2-oxo-1(2H)-pyrazinyl]-4-methyl-benzamide] |
| 8.2 | – | CCNCCOc1ccccc1C1(Nc2nccn(-c3cc(C(=O)NC4CC4)c(F)cc3C)c2=O)CC1 [Example 318, N-cyclopropyl-5-{3-[(1-{2-[2-(ethylamino)ethoxy]phenyl}cyclopropyl)amino]-2-oxopyrazin-1(2H)-yl}-2-fluoro-4-methylbenzamide] |
| 9.7 | – | Cc1ccc(C(=O)NC2CC2)cc1-n1ccnc(NC2(c3ccccc3OCCNCCCO)CC2)c1=O [Example 250, N-Cyclopropyl-3-[3-[[1-[2-[2-[(3-hydroxypropyl)amino]ethoxy]phenyl]cyclopropyl]amino]-2-oxo-1(2H)-pyrazinyl]-4-methyl-benzamide] |
| 6.8 | – | Cc1ccc(C(=O)NC2CC2)cc1-n1ccnc(NCCCc2ccccc2)c1=O [Example 36, N-Cyclopropyl-4-methyl-3-[2-oxo-3-[(3-phenylpropyl)amino]-1(2H)-pyrazinyl]-benzamide] |
| 9.7 | – | C[C@@H](O)CNCCOc1ccccc1C(C)(C)Nc1nccn(-c2cc(C(=O)NC3CC3)ccc2Cl)c1=O [Example 332, 4-Chloro-N-cyclopropyl-3-[3-({1-[2-(2-{[(2R)-2-hydroxypropyl]amino}ethoxy)phenyl]-1-methylethyl}amino)-2-oxopyrazin-1(2H)-yl]benzamide] |
| 7.4 | – | Cc1ccc(C(=O)NC2CC2)cc1-n1ccnc(N2CCNC(c3ccccc3)C2)c1=O (centres unmarked) [Example 53, N-Cyclopropyl-4-methyl-3-[2-oxo-3-(3-phenyl-1-piperazinyl)-1(2H)-pyrazinyl]-benzamide] |
| 6.9 | – | Cc1ccc(C(=O)NC2CC2)cc1-n1ccnc(NCC(C)(C)C)c1=O [Example 49, N-Cyclopropyl-3-[3-[(2,2-dimethylpropyl)amino]-2-oxo-1(2H)-pyrazinyl]-4-methyl-benzamide] |
| 6.7 | – | Cc1ccc(C(=O)NC2CC2)cc1-n1ccnc(NCc2cccc(CN3CCN(C)CC3)c2)c1=O [Example 40, N-Cyclopropyl-4-methyl-3-[3-[[[3-[(4-methyl-1-piperazinyl)methyl]phenyl]methyl]amino]-2-oxo-1(2H)-pyrazinyl]-benzamide] |
| 6.2 | – | Cc1ccc(C(=O)NC2CC2)cc1-n1cc(C(N)=O)nc(NCc2ccccc2)c1=O [Example 106, 4-[5-[(Cyclopropylamino)carbonyl]-2-methylphenyl]-4,5-dihydro-5-oxo-6-[(phenylmethyl)amino]-2-pyrazinecarboxamide] |
| 9.6 | – | Cc1ccc(C(=O)NC2CC2)cc1-n1ccnc(NC(C)(C)c2ccccc2OCCNC(C)C)c1=O [Example 212, N-Cyclopropyl-4-methyl-3-[3-[[1-methyl-1-[2-[2-[(1-methylethyl)amino]ethoxy]phenyl]ethyl]amino]-2-oxo-1(2H)-pyrazinyl]-benzamide] |
| 10.2 | – | CNC[C@H](O)COc1ccccc1C1(Nc2nccn(-c3cc(C(=O)NC4CC4)ccc3C)c2=O)CC1 [Example 304, N-Cyclopropyl-3-[3-{[1-(2-{[(2S)-2-hydroxy-3-(methylamino)propyl]oxy}phenyl)cyclopropyl]amino}-2-oxopyrazin-1(2H)-yl]-4-methylbenzamide] |
| 9.5 | – | CCNCCOc1ccccc1C(CC)(CC)Nc1nccn(-c2cc(C(=O)NC3CC3)ccc2C)c1=O [Example 267, N-Cyclopropyl-3-[3-[[1-ethyl-1-[2-[2-(ethylamino)ethoxy]phenyl]propyl]amino]-2-oxo-1(2H)-pyrazinyl]-4-methyl-benzamide] |
| 10.3 | – | Cc1ccc(C(=O)NC2CC2)cc1-n1ccnc(NC2(c3ccccc3OCCNC(C)C)CC2)c1=O [Example 234, N-Cyclopropyl-4-methyl-3-[3-[[1-[2-[2-[(1-methylethyl)amino]ethoxy]phenyl]cyclopropyl]amino]-2-oxo-1(2H)-pyrazinyl]-benzamide] |
| 7.9 | – | Cc1ccc(C(=O)NC2CC2)cc1-n1ccnc(N[C@H](CO)c2ccccc2)c1=O [Example 80, N-Cyclopropyl-3-[3-[[(1S)-2-hydroxy-1-phenylethyl]amino]-2-oxo-1(2H)-pyrazinyl]-4-methyl-benzamide] |

| pIC50 | IC50 [nM] | Structure (SMILES) |
| --- | --- | --- |
| 8.1 | – | Cc1ccc(C(=O)NC2CC2)cc1-n1ccnc(N[C@@H](c2cccc3ccccc23)[C@@H](C)CO)c1=O [Example 137, N-Cyclopropyl-3-[3-[[(1R,2R)-3-hydroxy-2-methyl-1-(1-naphthalenyl)propyl]amino]-2-oxo-1(2H)-pyrazinyl]-4-methyl-benzamide] |
| 10.1 | – | CNC[C@@H](O)COc1ccccc1C1(Nc2nccn(-c3cc(C(=O)NC4CC4)ccc3C)c2=O)CC1 [Example 301, N-Cyclopropyl-3-[3-{[1-(2-{[(2R)-2-hydroxy-3-(methylamino)propyl]oxy}phenyl)cyclopropyl]amino}-2-oxopyrazin-1(2H)-yl]-4-methylbenzamide] |
| – | 1.26 | CNCCCOc1ccccc1[C@H]1CCCN1c1nccn(-c2cc(C(=O)NC3CC3)ccc2C)c1=O (single isomer, unassigned) [Example 325] |
| 6.1 | – | Cc1ccc(C(=O)NC2CC2)cc1-n1ccnc(NCCCN2CCN(C)CC2)c1=O [Example 4, N-Cyclopropyl-4-methyl-3-[3-[[3-(4-methyl-1-piperazinyl)propyl]amino]-2-oxo-1(2H)-pyrazinyl]-benzamide] |
| 9 | – | Cc1ccc(C(=O)NC2CC2)cc1-n1ccnc(N[C@@H](c2ccccc2)[C@@H](C)CNCC(C)C)c1=O [Example 182, N-Cyclopropyl-4-methyl-3-[3-[[(1R,2S)-2-methyl-3-[(2-methylpropyl)amino]-1-phenylpropyl]amino]-2-oxo-1(2H)-pyrazinyl]-benzamide] |
| 9.1 | – | Cc1ccc(C(=O)NC2CC2)cc1-n1ccnc(N[C@@H](c2ccccc2)[C@@H](C)CNCCN(C)C)c1=O [Example 155, N-Cyclopropyl-3-[3-[[(1R,2S)-3-[[2-(dimethylamino)ethyl]amino]-2-methyl-1-phenylpropyl]amino]-2-oxo-1(2H)-pyrazinyl]-4-methyl-benzamide] |
| 6.3 | – | Cc1ccc(C(=O)NC2CC2)cc1-n1ccnc(NCC(c2ccccc2)N(C)C)c1=O (centres unmarked) [Example 61, N-Cyclopropyl-3-[3-[[2-(dimethylamino)-2-phenylethyl]amino]-2-oxo-1(2H)-pyrazinyl]-4-methyl-benzamide] |
| 7 | – | Cc1ccc(C(=O)NC2CC2)cc1-n1ccnc(NC(C)(C)Cc2ccc(F)cc2)c1=O [Example 62, N-Cyclopropyl-3-[3-[[2-(4-fluorophenyl)-1,1-dimethylethyl]amino]-2-oxo-1(2H)-pyrazinyl]-4-methyl-benzamide] |
| 8.2 | – | Cc1ccc(C(=O)NC2CC2)cc1-n1ccnc(N[C@@H](c2cccc3ccccc23)[C@@H](C)CN2CCOCC2)c1=O [Example 145, N-Cyclopropyl-4-methyl-3-[3-[[(1R,2S)-2-methyl-3-(4-morpholinyl)-1-(1-naphthalenyl)propyl]amino]-2-oxo-1(2H)-pyrazinyl]-benzamide] |
| 10.3 | – | Cc1c(F)cc(C(=O)NC2CC2)cc1-n1ccnc(NC2(c3cc(F)ccc3OCCNCCO)CC2)c1=O [Example 282, N-Cyclopropyl-3-fluoro-5-[3-{[1-(5-fluoro-2-{2-[(2-hydroxyethyl)amino]ethoxy}phenyl)cyclopropyl]amino}-2-oxopyrazin-1(2H)-yl]-4-methylbenzamide] |
| 6.3 | – | Cc1ccc(C(=O)NC2CC2)cc1-n1cc(Cl)nc(NCCCN(C)C)c1=O [Example 108, 3-[5-Chloro-3-[[3-(dimethylamino)propyl]amino]-2-oxo-1(2H)-pyrazinyl]-N-cyclopropyl-4-methyl-benzamide] |
| 10.3 | – | CCNC[C@@H](O)COc1ccccc1C1(Nc2nccn(-c3cc(C(=O)NC4CC4)ccc3C)c2=O)CC1 [Example 300, N-Cyclopropyl-3-[3-{[1-(2-{[(2R)-3-(ethylamino)-2-hydroxypropyl]oxy}phenyl)cyclopropyl]amino}-2-oxopyrazin-1(2H)-yl]-4-methylbenzamide] |
| 8.1 | – | COC[C@H]1CCCN1C[C@@H](C)[C@@H](Nc1nccn(-c2cc(C(=O)NC3CC3)ccc2C)c1=O)c1ccccc1 [Example 148, N-Cyclopropyl-3-[3-[[(1R,2R)-3-[(2R)-2-(methoxymethyl)-1-pyrrolidinyl]-2-methyl-1-phenylpropyl]amino]-2-oxo-1(2H)-pyrazinyl]-4-methyl-benzamide] |
| 5.9 | – | Cc1ccc(C(=O)NC2CC2)cc1-n1ccnc(NCCN(C)C)c1=O [Example 5, N-Cyclopropyl-3-[3-[[2-(dimethylamino)ethyl]amino]-2-oxo-1(2H)-pyrazinyl]-4-methyl-benzamide] |
| 9.9 | – | Cc1c(F)cc(C(=O)NC2CC2)cc1-n1ccnc(NC(C)(C)c2ccccc2OCCNCCC(=O)O)c1=O [Example 313, N-(2-{2-[1-({4-[5-(Cyclopropylcarbamoyl)-3-fluoro-2-methylphenyl]-3-oxo-3,4-dihydropyrazin-2-yl}amino)-1-methylethyl]phenoxy}ethyl)-beta-alanine] |
| 6.8 | – | Cc1ccc(C(=O)NC2CC2)cc1-n1ccnc(Sc2ccccc2)c1=O [Example 117, N-Cyclopropyl-4-methyl-3-[2-oxo-3-(phenylthio)-1(2H)-pyrazinyl]-benzamide] |
